Experimental data from patent publication US20130053430A1, “MODULATION OF CETP EXPRESSION” (Isis Pharmaceuticals, Inc., priority 2010, published 2013).
e = 2'-O-(2-methoxyethyl) (MOE); d = 2'-deoxy (DNA)

What was measured:
[1] = test system: ApoA1; assay: Liver ApoA1 mRNA expression (Example 9); type: in vivo, mice; conditions: s.c. 6 weeks; for Percent inhibition of liver mRNA expression, ApoA1: percentage increase or decrease compared to PBS control
Procedure: Another group received subcutaneous injections of control oligonucleotide ISIS 141923 at a dose of 50 mg/kg/week for 6 weeks. One group of mice received subcutaneous injections of PBS for 6 weeks. The PBS-injected group served as the control group to which treatment groups were compared.
Liver RNA was isolated for real-time PCR analysis of ABCA1, ApoAI, and SR-B1. ATP-binding cassette transporter ABCA1 (member 1 of human transporter sub-family ABCA), also known as the cholesterol efflux regulatory protein (CERP) is a protein which in humans is encoded by the ABCA1 gene (Luciani, M. F. et al., Genomics. 1994. 21: 150-9). This transporter is a major regulator of cellular cholesterol and phospholipid homeostasis. Apolipoprotein A-I is a protein that in humans is encoded by the APOA1 gene (Breslow, J. L. et al., Proc. Natl. Acad. Sci. USA 1982. 79: 6861-5). Apolipoprotein A-I is the major protein component of HDL in plasma. The protein promotes cholesterol efflux from tissues to the liver for excretion. Scavenger receptor class B, type I (SR-BI) is an integral membrane protein found in numerous cell types/tissues, including the liver and adrenal (Acton, S. L. et al., J. Biol. Chem. 1994. 269: 21003-21009). It is best known for its role in facilitating the uptake of cholesteryl esters from high-density lipoproteins in the liver. Therefore, all three genes have a role in HDL regulation.
The primer probe set RTS1204 (forward sequence […], designated herein as SEQ ID NO: 122, reverse sequence […], designated herein as SEQ ID NO: 123, probe sequence AGGCCCAGACCTGTAAAGGCGAAGX, with X a fluorophore, designated herein as SEQ ID NO: 124) was used to measure abca1 levels. The primer probe set RTS14737 (forward sequence […], designated herein as SEQ ID NO: 125, reverse sequence […], designated herein as SEQ ID NO: 126, probe sequence CTGCAGGAACGGCTGGGCCCX, with X a fluorophore, designated herein as SEQ ID NO: 127) was used to measure apoA1 levels. The primer probe set mSRB-1 (forward sequence […], designated herein as SEQ ID NO: 128, reverse sequence ATGCGACTTGTCAGGCTGG, designated herein as SEQ ID NO: 129, probe sequence CGTGGAGAACCGCAGCCTCCATTX, with X a fluorophore, designated herein as SEQ ID NO: 130) was used to measure sr-b1 levels. The results are presented in Table 44 as percentage increase or decrease in the respective expression levels compared to the PBS control. Both primer probe sets produced similar results. The RNA expression levels were normalized to murine Cyclophilin. Treatment with ISIS 349517 caused an increase in ApoA1 and SR-B1 levels.

[2] = test system: human CETP mRNA; assay: Liver CETP mRNA in huCETP transgenic mice, normal chow (Example 5); type: in vivo; conditions: 50 mg/kg i.p. twice per week for 6 weeks, relative to PBS control
Procedure: Male huCETP transgenic mice were maintained on a 12-hour light/dark cycle and fed ad libitum normal Purina mouse chow. Animals were acclimated for at least 7 days in the research facility before initiation of the experiment. Antisense oligonucleotides (ASOs) were prepared in buffered saline (PBS) and sterilized by filtering through a 0.2 micron filter. Oligonucleotides were dissolved in 0.9% PBS for injection.
(§1) The mice were divided into five treatment groups. The first four groups received intraperitoneal injections of ISIS 349511, ISIS 349512, ISIS 349515, or ISIS 349517 at a dose of 50 mg/kg twice per week for 6 weeks. The fifth group received intraperitoneal injections of saline twice weekly for 6 weeks.
Twenty four hours after the final dose, the animals were sacrificed and liver tissue was isolated. Liver RNA was isolated for real-time PCR analysis of CETP. Two primer probe sets, hCETP (forward sequence […], designated herein as SEQ ID NO: 118; reverse sequence […], designated herein as SEQ ID NO: 119; probe sequence TGCGGACCGATGCCCCTGAX, designated herein as SEQ ID NO: 120) and hCETP2_LTS00182 (forward sequence […], designated herein as SEQ ID NO: 38; reverse sequence GGCTCACGCCTTTGCTGTT, designated herein as SEQ ID NO: 39: probe sequence CGGCTCGAGGTAGTGTTTACAGCCCTCX, designated herein as SEQ ID NO: 40), were used. These primer probe sets target the CETP mRNA transcript at different regions. As presented in Table 7, treatment with antisense oligonucleotides reduced CETP mRNA expression. The primer probe sets were used individually and collectively to measure CETP mRNA expression and gave similar results in all three cases. The RNA expression levels were normalized to murine Cyclophilin, a house-keeping gene, which is constitutively expressed. Cyclophilin levels were measured using the primer probe set described in Table 2. The results are expressed as percent inhibition of CETP mRNA, relative to the PBS control.

[3] = test system: CETP protein; assay: Plasma CETP protein by ELISA in huCETP transgenic mice (Example 5); type: in vivo, human; conditions: normal chow, 50 mg/kg i.p. twice per week for 6 weeks, compared to PBS control
Procedure: as §1
Plasma levels of CETP protein were measured by ELISA (Alpco, N.H.). […] The results are expressed as percentage inhibition compared to the PBS control.

[4] = test system: human CETP mRNA; assay: Dose-dependent antisense inhibition of human CETP in SW872 liposarcoma cells (Example 3); type: cell-based; conditions: Lipofectin, ~16 hours (Example 3)
Procedure: ISIS 17291 ([…], 6-8-6 MOE (SEQ ID NO: 115)), ISIS 17302 ([…], 6-8-6 MOE (SEQ ID NO: 116)), and ISIS 17305 ([…], 6-8-6 MOE (SEQ ID NO: 117), first disclosed in U.S. Ser. No. 11/031,827 (incorporated by reference herein), were also tested under the same conditions. Cells were plated at a density of 50,000 cells per well in a 24-well plate and transfected using Lipofectin reagent with 50 nM, 150 nM, and 300 nM concentrations of each antisense oligonucleotide. After approximately 16 hours, RNA was isolated from the cells and CETP mRNA levels were measured by quantitative real-time PCR. CETP mRNA levels were normalized to total RNA content, as measured by the house-keeping gene, GAPDH mRNA levels. Results are presented in Table 5 as percent inhibition of CETP, relative to untreated control cells.

Substance | Percent inhibition of liver mRNA expression, ApoA1 ([1]; Dose 50 mg/kg/wk) | Percent inhibition of liver CETP mRNA expression, Combined primer probe sets [2] [%] | Percent inhibition of liver CETP mRNA expression, Primer probe set hCETP [2] [%] | Percent inhibition of liver CETP mRNA expression, Primer probe set hCETP2_LTS00182 [2] [%] | Percent inhibition of plasma CETP protein levels [3] [%] | percent inhibition of CETP ([4]; 50 nM) [%] | percent inhibition of CETP ([4]; 150 nM) [%] | percent inhibition of CETP ([4]; 300 nM) [%] | ApoA1 levels (liver mRNA) ([1]; huCETP transgenic mice, Western diet) | Percent inhibition of liver mRNA expression, ApoA1 ([1]; Dose 1.5 mg/kg/wk) [%] | Percent inhibition of liver mRNA expression, ApoA1 ([1]; Dose 5 mg/kg/wk) [%] | Percent inhibition of liver mRNA expression, ApoA1 ([1]; Dose 15 mg/kg/wk)
ISIS 141923: CCTTCCCTGAAGGTTCCTCC, 5-10-5 MOE gapmer, a control oligonucleotide which has no known murine target (sugars from the 5' end e5 d10 e5, backbone and methylation of C not given here) [reference compound] | −50% |  |  |  |  |  |  |  |  |  |  | 
ISIS 349511: 5-10-5 MOE gapmer CCCGACCTCCTTGGAGACTT (sugars from the 5' end e5 d10 e5, backbone and methylation of C not given here) |  | 88 | 90 | 86 | 75 |  |  |  |  |  |  | 
ISIS 349517: 5-10-5 MOE gapmer CAGCACTTTAATGCCAGTGG (sugars from the 5' end e5 d10 e5, backbone and methylation of C not given here) | +136% | 97 | 99 | 95 | 86 | 76 | 91 | 93 | increase | −34 | −13 | +52%
